Series [1] deals with individuals with Down's Syndrome. In words: Clinical Evaluation of Language Fundamentals-Revised (CELF-R), 24 week open study of donepezil. It is filed as in vivo, human. How it is done: (§1) In the current study, we specifically examined the effects of donepezil and tested the hypothesis that expressive language performance in individuals with Down's Syndrome would improve with donepezil treatment. Language performance was measured with two objective measures, the Test of Problem Solving [Zachman et al., 1984] and the Clinical Evaluation of Language Fundamentals-Revised [Semel et al., 1986].
The Clinical Evaluation of Language Fundamentals-Revised (CELF-R: Semel et al., 1986]: The CELF-R is a diagnostic language test designed to assess language form and content, aspects of language generally regarded as fundamental to effective, oral—communication. Standardized expressive, receptive and overall language scores are derived from the summation of individual subtest scores. Typically, overall expressive and receptive language are evaluated by collapsing the subtest performance into a single receptive: or expressive language score. Individual subtest performance is analyzed for specific impairment within the broader expressive and receptive language domains. The instrument was standardized on 2,333 individuals (ages 5-0 to 16-11). Validity and reliability norms are available and adequate for each subtest.
(§2) Derivation of Language Level: Due to the absence of appropriate standardized measures for adults with DS, relative language level was determined by comparing subtest performance (raw scores) to the average performance level for five-year-olds. The five year-old level was selected because it is the lowest age level in which both tests provide normative data. For this study, TOPS performance was based on age equivalent scores.
(§3) Clinical Significance of Change: The clinical significance of the change in language performance following treatment was determined by comparing the difference in subject performance (between Baseline and treatment) to the amount of language improvement shown in one year by the average 5-year-old. For the TOPS, this index was the difference between the age equivalent score for children aged 5 years-0 months and the age equivalent score for children aged 6 years-0 months. For the CELF-R subtests, this index was difference between the mean raw scores for 5 year-olds and 6-year-olds.
Statistical Analyses: The main comparisons were changes from Baseline (week 0) assessed by repeated measures. […] Similarly, while we hypothesized an improvement in expressive language, the acceptable p-value was not adjusted to reflect a one-tailed analysis. P-values at or below 0.05 were viewed as significant. […] Across all measures, the performance gain between age 5 and age 6 is the highest rate of language gain recorded for any 12-month period.

The test system is the same in series [2]. In words: Test of Problem Solving (TOPS), 24 week open study of donepezil. Type of series: in vivo, human. Here is the method:
as §1
Measures: The Test of Problem Solving [TOPS: Zachman et al., 1984]: The TOPS is an expressive language test that measures the ability to verbally identify reasonable solutions to problems presented via pictures. It has been used to assess pragmatic language ability in patients with AD. [Ripich et al., 1997]. The TOPS consists of 15 pictured scenarios with accompanying questions about each picture. The standard set of questions is designed to have the subject make inferences, to determine causes of particular events, to determine solutions to pictured problems, and to determine strategies for avoiding problems. The instrument was standardized on 1578 individuals (ages 6 years-0 months to 11 years-11 months). Age equivalent scores are provided for ages 3 years-5 months to 15 years-9 months. Validity and reliability data are available. TOPS raw scores for the overall [test as recommended by Powell, 1993] were determined by the average of two independent observers, one scoring onsite and a second scoring from audiotaped recordings of the test sessions.
as §2, §3
Statistical Analyses: The main comparisons were changes from Baseline (week 0) assessed by repeated measures. […] Similarly, while we hypothesized an improvement in expressive language, the acceptable p-value was not adjusted to reflect a one-tailed analysis. P-values at or below 0.05 were viewed as significant. Changes on standardized measures were viewed as clinically significant if the magnitude of the observed change was substantial in comparison to the level of performance gain typically achieved by children in the 12 month period between age 5 and age 6. Across all measures, the performance gain between age 5 and age 6 is the highest rate of language gain recorded for any 12-month period.

In series [3] the test system is DS patients. The note with it: human, in vivo; cited from earlier work.
Series [4] has as its system individuals with Down's Syndrome. Here is the method:
Subjects: After obtaining IRB approval and written informed consent, 5 males and […] with DS (confirmed by karyotyping), between the ages of 20-41 years (mean age=29 years), were enrolled in the trial. All subjects were verbal, able to hear speech at conversational level, and able to ingest oral medication. […] All individuals were evaluated for thyroid disorders and for Vitamin B 12 deficiency within 6 months of entry into the trial. […] Subject IQs ranged from 40 to 60 (mean IQ=52). The IQs of four subjects were determined during the baseline visit because testing had not been performed in the last 10 years. The IQ's of the two youngest subjects were determined from school records.
Study Design: This was a 24 week open study at the General Clinical Outpatient Research Unit at Duke University in which subjects attended three sessions, Week 0 (Baseline), Week 12 (Treatment-12), and Week 24 (Termination). Due to scheduling limitations, the average first post-treatment visit was at Week 13 and the second post-treatment visit was at Week 25. A physical exam and language testing were completed at all sessions. A checklist for medication related adverse events was performed at Week 12 and at study termination. At the completion of the Baseline visit, donepezil was dosed orally at 5 mg once daily for 6 weeks. The dose was increased to 10 mg (two 5 mg tablets) daily for the remaining weeks if the 5 mg dose was well tolerated. This dosage schedule was based on experience from a previous trial [Kishnani et al 1999] and the donepezil package insert. Patients were monitored closely for safety and tolerability of the medication by regular phone calls in between scheduled visits. Two language measures were used, the Test of Problem Solving (TOPS) and the Clinical Evaluation of Language Fundamentals-Revised (CELF-R). The TOPS was completed at Baseline and at Weeks 12 and 24 of treatment. The CELF-R was completed at Baseline and at Week 24.

Consider 1 compound from patent US20060129385A1, “Cholinergic therapy for individuals with learning disabilities” (priority 2002, published 2006).

On to `COc1cc2c(cc1OC)C(=O)C(CC1CCN(Cc3ccccc3)CC1)C2` (stereo not shown) [donepezil], for which, in series [1] (following 24 weeks of donepezil treatment, n=5), the “CELF-R subtests showing gains” value was 5 of 6. For the same compound, the “significance of CELF-R subtest differences from baseline levels” value in series [1] (following 24 weeks of treatment, p=0.15-0.23 in three expressive subtests and Word Classes) is reported as “None of the differences was significantly different”. The “gain in language performance on the CELF-R subtests, High Language Group” value in series [1] (individuals with higher language skills at Baseline, n=2, following treatment) is on record as “large gains”. In addition, in series [1] (individuals with lower language skills at Baseline, n=3, following treatment), the “gain on the CELF-R language measures, Low Language Group” value is recorded as “little gain”. The “change in TOPS performance, Treatment-12 weeks vs. Termination” value in series [2] (after 12 additional weeks of treatment (24 weeks), paired samples t=0.52, p=0.6313) was “No change”. Further, the “overall TOPS performance gain” value in series [2] (after 12 weeks of treatment vs Baseline, oral 5 mg once daily for 6 weeks, then 10 mg daily, adults with DS, paired t=4.5, p=0.0107) worked out at 6.5; in series [2] (after 24 weeks of treatment (Termination) vs Baseline, oral 5 mg then 10 mg daily, paired t=1.10, p=0.0513), 5.1. For the same compound, in series [2] (after treatment), the “clinical significance: overall TOPS performance gain relative to gain expected by the average five-year-old in one year of development” value was “more than one-half”. Moreover, the “performance on the TOPS, Baseline vs. Treatment-12 weeks” value in series [2] (following 12 weeks of treatment, paired samples t=4.5, p=0.0107) is given as “significantly improved performance”. Besides, the “adverse effect reported in DS patients” value in series [3] is given as “urinary incontinence”. The “subjects with mild cases of diarrhea” value in series [4] (at the 5 mg dosage, each case improved spontaneously) is reported as “Five of six subjects”. In series [4] (on the 10 mg dosage, six subjects), the “subjects reporting a transient decrease in appetite” value was “one subject”. The “subjects reporting cramps for one day” value in series [4] (six subjects) is “One subject”.
